{"source": "patent US20250353819A1", "about": "“ARYL HYDANTOIN COMPOUNDS AND METHODS OF USE” (priority 2022, published 2025)", "key": {"androgen-receptor": {"tested_on": "androgen-receptor", "assay": "DHT-induced (KLK3, FKBP5) and DHT-repressed (ZFP36L1) transcripts in LAPC4 cells", "assay_type": "cell-based", "details": "Compound IE up to 10 μM"}, "adult S. mansoni": {"tested_on": "adult S. mansoni", "assay": "ex vivo exposure of adult S. mansoni", "set-up": "species or system Schistosoma mansoni", "details": "S. mansoni worms exposed ex vivo", "from_the_text": "Without wishing to be bound to any particular theory, it is believed that the activity of the disclosed compounds is mediated at least in part by a host effect."}, "S. haematobium": {"tested_on": "S. haematobium", "assay": "S. haematobium infections in hamsters", "assay_type": "in vivo", "details": "single 50 mg/kg oral dose"}, "Photostability": {"assay": "Photostability", "assay_type": "physicochemical", "details": "500 μg/mL in 50% aq. MeOH, simulated confirmatory and forced degradation sunlight conditions", "method": "MeOH also was evaluated under simulated confirmatory and forced degradation sunlight conditions."}, "[1]": {"assay": "Chemical stability (acid, base, H2O2)", "assay_type": "physicochemical", "method": "Samples were neutralised and diluted to a nominal concentration of 100 μg/mL in 50% aq MeOH. […] A single degradation peak appeared in all the basic samples corresponding to the urea carboxylic acid hydrolysis product."}}, "data": [{"smiles": "[2H]C([2H])([2H])C1(C([2H])([2H])[2H])NC(=O)N(c2ccc(F)c(C(C)(F)F)c2)C1=O", "note": "[Compound IE, 3-(3-(1,1-difluoroethyl)-4-fluorophenyl)-5,5-bis(methyl-d3)imidazolidine-2,4-dione]", "values": [{"measurement": "levels of DHT-induced (KLK3, FKBP5) and DHT-repressed (ZFP36L1) transcripts", "setting": "androgen-receptor", "result": "no effect"}, {"measurement": "changes via transcriptomic and ultraresolution microscopy", "setting": "adult S. mansoni", "result": "no significant changes"}, {"measurement": "clearance of S. haematobium infections", "setting": "S. haematobium", "result": "completely cleared"}, {"measurement": "loss of parent compound (photostability)", "setting": "Photostability", "result": "< 3", "unit": "%"}, {"measurement": "loss of parent compound, acidic conditions", "setting": "[1]; 0.01 M and 0.1 M HCl, up to 48 h", "result": "minimal loss"}, {"measurement": "loss of parent compound, basic conditions", "setting": "[1]; 0.01 M and 0.1 M NaOH, after 2 min", "result": "significant loss"}, {"measurement": "loss of parent compound, 15% H2O2", "setting": "[1]; 15% H2O2 incubation", "result": "no significant loss"}]}]}
